In PMC6413085, “A Validated HPLC-MS/MS Assay for 14-O-[(4,6-Diaminopyrimidine-2-yl)thioacetyl] Mutilin in Biological Samples and Its Pharmacokinetic, Distribution and Excretion via Urine and Feces in Rats” (Molecules, 2019):

Test: Stability of DPTM in plasma, tissue homogenates, urine and feces (QC samples)
Type: physicochemical, rat
Method: Stability of DPTM and IS was examined by comparing the analytes’ concentrations in freshly prepared samples with those of samples maintained under different conditions, including the 24 h storage at room temperature, three freeze and thaw cycles, and storage at −70 °C for 4 weeks, respectively. Analyzing three levels of QC samples were used to assess the stability (accuracy and precision) with six replicates.
For the construction of calibration curves, 20 μL of each corresponding standard working solution (0.05, 0.2, 0.5, 1, 2, 5, 10, 20 and 40 μg/mL) was evaporated to dryness by nitrogen at 40 °C. The calibration standards (5, 20, 50, 100, 200, 500, 1000, 2000 and 4000 ng/mL) were prepared by adding 200 μL of blank plasma, various tissue homogenates (including heart, liver, spleen, lung, kidney, large intestine, small intestine, ileum, cecum, bladder, brain, jejunum and colon) or urine and feces to the residue, respectively. Quality control (QC) samples (10, 200 and 3000 ng/mL) were obtained by the same way as the calibration standards. All solutions were stored at −70 °C before use for no longer than 4 weeks.

## C=CC1(C)CC(OC(=O)CSc2nc(N)cc(N)n2)C2(C)C(C)CCC3(CCC(=O)C32)C(C)C1O (centres unmarked) [DPTM, 14-O-[(4,6-Diaminopyrimidine-2-yl)thioacetyl] mutilin]
Bladder, 10 ng/mL, Freeze-thaw Cycles
  Stability RE: 3.9%
Bladder, 10 ng/mL, Long-term (−70 °C, 4 Weeks)
  Stability RE: 3.6%
Bladder, 10 ng/mL, Short-term (25 °C, 24 h)
  Stability RE: 4.1%
Bladder, 200 ng/mL, Freeze-thaw Cycles
  Stability RE: 5.1%
Bladder, 200 ng/mL, Long-term (−70 °C, 4 Weeks)
  Stability RE: 5.1%
Bladder, 200 ng/mL, Short-term (25 °C, 24 h)
  Stability RE: 1.9%
Bladder, 3000 ng/mL, Freeze-thaw Cycles
  Stability RE: 3.5%
Bladder, 3000 ng/mL, Long-term (−70 °C, 4 Weeks)
  Stability RE: 3.3%
Bladder, 3000 ng/mL, Short-term (25 °C, 24 h)
  Stability RE: 3.1%
Brain, 10 ng/mL, Freeze-thaw Cycles
  Stability RE: 4.9%
Brain, 10 ng/mL, Long-term (−70 °C, 4 Weeks)
  Stability RE: 5.3%
Brain, 10 ng/mL, Short-term (25 °C, 24 h)
  Stability RE: 1.1%
Brain, 200 ng/mL, Freeze-thaw Cycles
  Stability RE: 6.5%
Brain, 200 ng/mL, Long-term (−70 °C, 4 Weeks)
  Stability RE: 6.6%
Brain, 200 ng/mL, Short-term (25 °C, 24 h)
  Stability RE: 3.3%
Brain, 3000 ng/mL, Freeze-thaw Cycles
  Stability RE: 4.1%
Brain, 3000 ng/mL, Long-term (−70 °C, 4 Weeks)
  Stability RE: 4.1%
Brain, 3000 ng/mL, Short-term (25 °C, 24 h)
  Stability RE: 8.1%
Cecum, 10 ng/mL, Freeze-thaw Cycles
  Stability RE: 7.2%
Cecum, 10 ng/mL, Long-term (−70 °C, 4 Weeks)
  Stability RE: 6.4%
Cecum, 10 ng/mL, Short-term (25 °C, 24 h)
  Stability RE: 6.7%
Cecum, 200 ng/mL, Freeze-thaw Cycles
  Stability RE: 3.9%
Cecum, 200 ng/mL, Long-term (−70 °C, 4 Weeks)
  Stability RE: 3.2%
Cecum, 200 ng/mL, Short-term (25 °C, 24 h)
  Stability RE: 3.1%
Cecum, 3000 ng/mL, Freeze-thaw Cycles
  Stability RE: −4.9%
Cecum, 3000 ng/mL, Long-term (−70 °C, 4 Weeks)
  Stability RE: −6.4%
Cecum, 3000 ng/mL, Short-term (25 °C, 24 h)
  Stability RE: −5.1%
Colon, 10 ng/mL, Short-term (25 °C, 24 h)
  Stability RE: 5.4%
Ileum, 10 ng/mL, Freeze-thaw Cycles
  Stability RE: −3.5%
Ileum, 10 ng/mL, Long-term (−70 °C, 4 Weeks)
  Stability RE: 3.2%
Ileum, 10 ng/mL, Short-term (25 °C, 24 h)
  Stability RE: 2.9%
Ileum, 200 ng/mL, Freeze-thaw Cycles
  Stability RE: 5.2%
Ileum, 200 ng/mL, Long-term (−70 °C, 4 Weeks)
  Stability RE: −5.1%
Ileum, 200 ng/mL, Short-term (25 °C, 24 h)
  Stability RE: 1.7%
Ileum, 3000 ng/mL, Freeze-thaw Cycles
  Stability RE: 3.3%
Ileum, 3000 ng/mL, Long-term (−70 °C, 4 Weeks)
  Stability RE: 3.5%
Ileum, 3000 ng/mL, Short-term (25 °C, 24 h)
  Stability RE: 3.1%
Jejunum, 10 ng/mL, Freeze-thaw Cycles
  Stability RE: 6.1%
Jejunum, 10 ng/mL, Long-term (−70 °C, 4 Weeks)
  Stability RE: 5.6%
Jejunum, 10 ng/mL, Short-term (25 °C, 24 h)
  Stability RE: 7.2%
Jejunum, 200 ng/mL, Freeze-thaw Cycles
  Stability RE: 7.3%
Jejunum, 200 ng/mL, Long-term (−70 °C, 4 Weeks)
  Stability RE: 7.3%
Jejunum, 200 ng/mL, Short-term (25 °C, 24 h)
  Stability RE: 7.5%
Jejunum, 3000 ng/mL, Freeze-thaw Cycles
  Stability RE: −5.4%
Jejunum, 3000 ng/mL, Long-term (−70 °C, 4 Weeks)
  Stability RE: −5.6%
Jejunum, 3000 ng/mL, Short-term (25 °C, 24 h)
  Stability RE: −5.3%
Kidney, 10 ng/mL, Freeze-thaw Cycles
  Stability RE: 3.7%
Kidney, 10 ng/mL, Long-term (−70 °C, 4 Weeks)
  Stability RE: 3.5%
Kidney, 10 ng/mL, Short-term (25 °C, 24 h)
  Stability RE: 3.4%
Kidney, 200 ng/mL, Freeze-thaw Cycles
  Stability RE: 2.3%
Kidney, 200 ng/mL, Long-term (−70 °C, 4 Weeks)
  Stability RE: 1.9%
Kidney, 200 ng/mL, Short-term (25 °C, 24 h)
  Stability RE: 0.9%
Kidney, 3000 ng/mL, Freeze-thaw Cycles
  Stability RE: 10.1%
Kidney, 3000 ng/mL, Long-term (−70 °C, 4 Weeks)
  Stability RE: 9.9%
Kidney, 3000 ng/mL, Short-term (25 °C, 24 h)
  Stability RE: 3.2%
Large intestine, 10 ng/mL, Freeze-thaw Cycles
  Stability RE: 6.3%
Large intestine, 10 ng/mL, Long-term (−70 °C, 4 Weeks)
  Stability RE: 6.9%
Large intestine, 10 ng/mL, Short-term (25 °C, 24 h)
  Stability RE: 1.9%
Large intestine, 200 ng/mL, Freeze-thaw Cycles
  Stability RE: 2.4%
